Test [1] relates to HCT116 MTAP KO. Description: Cell proliferation inhibition (CellTiter Glo), HCT116 MTAP KO cells. The class given is cell-based. The note with it: Homo sapiens, HCT-116, 144 h, cultured 6 days with compound. As for the experimental part:
(§1) Test Example 2: Test of cell proliferation inhibition activity of the compounds
(§2) HCT116-WT (ATCC, CCL-247) and HCT116 MTAP KO (Cobioer Nanjing, CBP75002) cells were seeded into white low-transparency 96-well sterile cell culture plates at a density of 250 cells per well, respectively. The culture medium was McCoy's 5A Medium + 10% FBS. The plates were incubated overnight at 37°C with 5% CO2. The cells were treated with compounds gradiently with an initial concentration of 10000 nM, 4-fold dilution, and 8 concentration points. The last two columns were control wells with only DMSO added. The treated cells were continued to be cultured for 6 days. On the seventh day, 50 µL of CellTiter Glo® reagent was added to each well. After reacting on a shaker at room temperature for 10 minutes, the chemiluminescence signal in the plate was detected using the chemiluminescence detection method on a BIOTEK H1 multi-mode plate reader. […] Table 2: IC50 values of compounds for HCT116 MTAP KO/WT cell growth inhibition
For orientation: Cellular ATP, detected with luciferase, serves as a proxy for viable cell number.

Test [2] deals with HCT116-WT. Description: Cell proliferation inhibition (CellTiter Glo), HCT116-WT cells. It is filed as cell-based. The note with it: 144 h, cultured 6 days with compound. Here is the method: as §1, §2
Test [3] addresses PRMT5-MTA (Homo sapiens, UniProt O14744). The test is described as follows: biochemical. The note with it: IC50 (nM), PRMT5+MTA enzyme activity inhibition; PRMT5/MET50 protein 1 nM, 5'-deoxy-5'-adenosine 1 µM, SAM 2.5 µM, Histone H4 substrate 5 nM.
Protocol: The enzymatic inhibition activity of the compounds against PRMT5-MTA was detected using the AlphaScreen method. A 1× methyltransferase assay buffer IV (Signalchem) was prepared as a dilution solution for each component of the enzymatic reaction. […] The test compounds were added to all wells except the control wells in a 3-fold dilution series of 10 concentration points starting from 1000 nM using a Tecan D300e. After centrifugation at 1000 rpm for 1 minute in a centrifuge, the plate was incubated at 23°C for 15 minutes. Histone H4 substrate at a final concentration of 5 nM was added to the plate at 4 µL per well. After centrifugation at 1000 rpm for 1 minute in a centrifuge, the plate was reacted in an incubator at 23°C for 45 minutes. Anti-Histone H4 (symmetric dimethyl R3) antibody (Abcam) was pre-incubated with 50 µg/mL AlphaScreen Protein A Acceptor beads (PerkinElmer) at room temperature for 10 minutes, and then added to the plate in a volume of 10 µL per well, followed by reaction at room temperature for 1 hour. 10 µL of 50 µg/mL AlphaScreen Streptavidin Donor beads (PerkinElmer) were added to each well, and reacted at room temperature for 1 hour. The signal values in the plate were detected using the Alpha method on an Envision multi-mode plate reader. The IC50 values of the compounds for PRMT5/MET50 enzyme activity inhibition were calculated in Xlfit 5.0 software.

Results on 25 compounds are retold here after patent publication EP4763847A1 (Jiangsu Yahong Meditech Co., Ltd., priority 2023, dated 2025).

What is called IC50 is the concentration that inhibits the measured activity by half.

PRMT5-MTA, sequence (O14744 whole entry): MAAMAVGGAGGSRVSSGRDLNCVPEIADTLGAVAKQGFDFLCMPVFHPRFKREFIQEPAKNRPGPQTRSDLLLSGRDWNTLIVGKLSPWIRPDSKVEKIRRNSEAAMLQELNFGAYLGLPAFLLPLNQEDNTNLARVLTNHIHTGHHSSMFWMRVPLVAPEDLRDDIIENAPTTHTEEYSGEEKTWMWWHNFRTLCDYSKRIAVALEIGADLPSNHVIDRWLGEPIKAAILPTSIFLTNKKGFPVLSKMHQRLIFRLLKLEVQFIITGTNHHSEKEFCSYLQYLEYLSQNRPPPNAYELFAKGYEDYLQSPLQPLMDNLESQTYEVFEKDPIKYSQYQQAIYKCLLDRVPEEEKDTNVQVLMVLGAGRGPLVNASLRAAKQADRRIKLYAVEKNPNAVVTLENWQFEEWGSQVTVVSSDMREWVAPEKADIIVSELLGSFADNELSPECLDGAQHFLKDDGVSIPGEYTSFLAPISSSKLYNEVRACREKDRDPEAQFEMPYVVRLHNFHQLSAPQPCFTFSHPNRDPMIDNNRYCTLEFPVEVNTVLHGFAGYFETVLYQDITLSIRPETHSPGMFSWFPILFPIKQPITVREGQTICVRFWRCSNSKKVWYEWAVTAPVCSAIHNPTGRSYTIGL
PRMT5-MTA, sequence (Q9BQA1 whole entry partner): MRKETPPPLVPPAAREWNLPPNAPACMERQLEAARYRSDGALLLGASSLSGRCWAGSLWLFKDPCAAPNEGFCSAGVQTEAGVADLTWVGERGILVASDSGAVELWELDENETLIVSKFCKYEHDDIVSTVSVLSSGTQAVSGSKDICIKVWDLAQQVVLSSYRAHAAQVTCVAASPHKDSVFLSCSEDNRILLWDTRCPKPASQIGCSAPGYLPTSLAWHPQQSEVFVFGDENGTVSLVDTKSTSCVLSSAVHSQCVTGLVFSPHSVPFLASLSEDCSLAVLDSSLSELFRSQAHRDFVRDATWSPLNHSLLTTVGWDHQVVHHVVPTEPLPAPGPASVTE

Regarding `CNC(N)=Nc1ccc(C(=O)N(Cc2ccc(C(F)(F)F)cn2)c2cccc3ccccc23)cn1` [Compound 47], the IC50 was determined as 31 nM in test [1], 593 nM in test [2] and 1.4 nM in test [3].

On to `CNC(N)=Nc1ccc(C(=O)N(Cc2ccc(C(F)(F)F)cn2)c2cccc3nccnc23)cn1` [Compound 50], for which the IC50 in test [1] was 25 nM; in test [2] it was 512 nM; in test [3], 1.7 nM.

`CNC(N)=Nc1ccc(C(=O)N(Cc2ccc(C(F)(F)F)cn2)c2csc3cccnc23)cn1` [Compound 51]: the IC50 in test [1] worked out at 51 nM; in test [2], 618 nM; in test [3] it was 2.6 nM.

On to `CNC(N)=Nc1ccc(C(=O)N(Cc2ccc(C(F)(F)F)cn2)n2ccc3cccnc32)cn1` [Compound 56, 6-((amino(methylamino)methylene)amino)-N-(1H-pyrrolo[2,3-b]pyridin-1-yl)-N-[(5-(trifluoromethyl)pyridin-2-yl)methyl)nicotinamide], for which the IC50 came to 36 nM in test [1], 536 nM in test [2] and 5.8 nM in test [3].

Regarding `CNC(N)=Nc1ccc(C(=O)N(Cc2ccc(C(F)(F)F)cn2)C(C)c2ccccc2OC(F)(F)F)cn1` (stereo not drawn) [Compound 60], the IC50 in test [1] was determined as 933 nM; in test [2], 2950 nM; in test [3], 2.8 nM.

Turning to `CNC(N)=Nc1ccc(C(=O)N(Cc2ccc(C(F)(F)F)cn2)C2CCCc3ccccc32)cn1` (stereo not drawn) [Compound 61], the half-inhibitory concentration (IC50) in test [1] is 28 nM; in test [2] it was 769 nM; in test [3], 1.4 nM.

Consider `CNC(N)=Nc1ccc(C(=O)N(Cc2ccc(C(F)(F)F)cn2)n2ccc3ccccc32)cn1` [Compound 62], for which the values for the IC50 in test [1], in test [2] and in test [3] were 76 nM, 1790 nM and 4.1 nM, respectively.

As to `CNC(N)=Nc1ccc(C(=O)N(Cc2ccc(C(F)(F)F)cn2)N2CCc3ccccc32)cn1` [Compound 64], the IC50 in test [1] is 63 nM; in test [2], 1960 nM; in test [3] it was 3.2 nM.

On to `CN/C(N)=N\c1ccc(C(=O)N(Cc2ccc(-c3ccc(N4CCOCC4)nc3)cn2)[C@H](C)c2ccccc2F)cn1` [Compound 67, (R,Z)-6-((amino(methylamino)methylene)amino)-N-(1-(2-fluorophenyl)ethyl)-N-((6'-morpholino-[3,3'-bipyridin]-6-yl)methyl)nicotinamide], for which the values for the IC50 in test [1], in test [2] and in test [3] were 145 nM, 672 nM and 5.7 nM, respectively.

`CNC(N)=Nc1ccc(C(=O)N(Cc2ccc(-c3cccnc3)cn2)[C@H](C)c2ccccc2F)cn1` [Compound 68]: the IC50 in test [1] turned out to be 169 nM; in test [2], 1990 nM; in test [3], 7.7 nM.

With `CNC(N)=Nc1ccc(C(=O)N(Cc2ccc(-c3cnn(C(F)(F)F)c3)cn2)[C@H](C)c2ccccc2F)cn1` [Compound 69], the IC50 in test [1] is 50 nM; in test [2], 643 nM; in test [3], 4.8 nM.

In the case of `CNC(N)=Nc1ccc(C(=O)N(Cc2ccc(-c3cnc(C)nc3)cn2)[C@H](C)c2ccccc2F)cn1` [Compound 70], the IC50 in test [1] was 150 nM; in test [2], 2580 nM; in test [3] it was 3.9 nM.

As for `CNC(N)=Nc1ccc(C(=O)N(Cc2ccc(-c3ccc(C)nc3)cn2)[C@H](C)c2ccccc2F)cn1` [Compound 71], the IC50 in test [1] was found to be 62 nM; in test [2], 1090 nM; in test [3], 7.7 nM.

Consider `CNC(N)=Nc1ccc(C(=O)N(Cc2ccc(-c3cnc4c(cnn4C)c3)cn2)[C@H](C)c2ccccc2F)cn1` [Compound 73], for which the results for the IC50 in test [1], in test [2] and in test [3] were 72 nM, 1080 nM and 6.5 nM, respectively.

`CNC(N)=Nc1ccc(C(=O)N(Cc2ccc(C(C)F)cn2)[C@H](C)c2ccccc2F)cn1` (stereo partly drawn) [Compound 74, 6-((Z)-(amino(methylamino)methylene)amino)-N-((5-(1-fluoroethyl)pyridin-2-yl)methy 1)-N-((R)-1-(2-fluorophenyl)ethyl)nicotinamide]: the IC50 in test [1] stood at 41 nM; in test [2], 744 nM; in test [3], 8 nM.

On to `CN/C(N)=N\c1ccc(C(=O)N(Cc2ccc(C(C)(C)F)cn2)[C@H](C)c2ccccc2F)cn1` [Compound 75, (R,Z)-6-((amino(methylamino)methylene)amino)-N-(1-(2-fluorophenyl)ethyl)-N-((5-(2-fluoropropan-2-yl)pyridin-2-yl)methyl)nicotinamide], for which the IC50 in test [1] came out at 36 nM; in test [2] it was 844 nM; in test [3], 2.6 nM.

Take `CN/C(N)=N\c1ccc(C(=O)N(Cc2ccc(C(C)(F)F)cn2)[C@H](C)c2ccccc2F)cn1` [Compound 76, (R,Z)-6-((amino(methylamino)methylene)amino)-N-((5-(1,1-difluoroethyl)pyridin-2-yl)methyl)-N-(1-(2-fluorophenyl)ethyl)nicotinamide]: the IC50 amounted to 32 nM in test [1], 345 nM in test [2] and 5.4 nM in test [3].

Take `CN/C(N)=N\c1ccc(C(=O)N(Cc2ccc(OC(F)(F)F)cn2)[C@H](C)c2ccccc2F)cn1` [Compound 77, (R,Z)-6-((amino(methylamino)methylene)amino)-N-(1-(2-fluorophenyl)ethyl)-N-((5-(trifluoromethoxy)pyridin-2-yl)methyl)nicotinamide]: the IC50 was found to be 28 nM in test [1], 330 nM in test [2] and 4 nM in test [3].

Regarding `CN/C(N)=N\c1ccc(C(=O)N(Cc2ccc3nc(C)sc3c2)[C@H](C)c2ccccc2F)cn1` [Compound 78, (R,Z)-6-((amino(methylamino)methylene)amino)-N-(1-(2-fluorophenyl)ethyl)-N-((2-methylbenzo[d]thiazol-6-yl)methyl)nicotinamide], the results for the IC50 in test [1], in test [2] and in test [3] were 287 nM, 1860 nM and 7.7 nM, respectively.

For `CNC(N)=Nc1ccc(C(=O)N(Cc2ccc3sc(C4CCN(C)CC4)nc3c2)[C@H](C)c2ccccc2F)cn1` [Compound 79], the IC50 in test [1] was found to be 782 nM; in test [2], 3440 nM; in test [3], 3.1 nM.

For `CN/C(N)=N\c1ccc(C(=O)N(Cc2ccc(C(F)(F)F)cn2)[C@H](C)c2ccc(F)cc2F)cn1` [Compound 82, (R,Z)-6-((amino(methylamino)methylene)amino)-N-(1-(2,4-difluorophenyl)ethyl)-N-((5-(trifluoromethyl)pyridin-2-yl)methyl)nicotinamide], the IC50 in test [1] is 18 nM; in test [2], 226 nM; in test [3] it was 4.2 nM.

Regarding `CNC(N)=Nc1ccc(C(=O)N(Cc2ccc(C(F)(F)F)cn2)[C@@H]2CCc3ccccc32)cn1` [Compound 83], the IC50 in test [1] turned out to be 195 nM; in test [2] it was 1710 nM; in test [3], 4 nM.

In the case of `CNC(N)=Nc1ccc(C(=O)N(Cc2ccc(C(F)(F)F)cn2)[C@H](C)c2cc(F)ccc2F)cn1` [Compound 85], the IC50 in test [1] is 11 nM; in test [2], 290 nM; in test [3], 4 nM.

As to `CNC(N)=Nc1ccc(C(=O)N(Cc2ccc(C(F)(F)F)cn2)C2CCOc3ccccc32)cn1` (stereo not drawn) [Compound 86], the results for the IC50 in test [1], in test [2] and in test [3] were 60 nM, 867 nM and 0.7 nM, respectively.

In the case of `CNC(N)=Nc1ccc(C(=O)N(Cc2ccc(C(F)(F)F)cn2)[C@H]2CCc3ccccc32)cn1` [Compound 87], the results for the IC50 in test [1], in test [2] and in test [3] were 975 nM, 3310 nM and 2.7 nM, respectively.
